From patent publication US20260274892A1, “MACROCYCLIC BROAD SPECTRUM ANTIBIOTICS” (RQx Pharmaceuticals, Inc., priority 2017, published 2026) come the findings set out here.

Test [1] has as its system Methicillin Resistant Staphylococcus aureus strain USA 200. Description: Minimum inhibitory concentration (MIC), CLSI broth micro-dilution, S. aureus. The format is cell-based. The note with it: Staphylococcus aureus, MRSA / USA200; Table 6; MRSA USA 200; cation adjusted Mueller Hinton Broth + 0.002% Tween-80; 35° C., 22 hours. Put shortly:
(§1)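 Antibacterial potency is measured as MIC by the CLSI broth dilution method. Bacteria at OD600 0.0005 in Tween-80-supplemented cation-adjusted Mueller Hinton broth face ten twofold compound dilutions for 22 h at 35° C.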
In general terms: In broth dilution the organism is exposed to a series of concentrations in liquid medium.

The test system of test [2] is Escherichia coli ATCC 25922. The test is described as follows: Minimum inhibitory concentration (MIC), CLSI broth micro-dilution, E. coli. The test is classed as cell-based. The note with it: Escherichia coli, ATCC25922, 22 h, Table 6, cation adjusted Mueller Hinton Broth + 0.002% Tween-80, 35° C. Put shortly:
as §1

The term MIC denotes the smallest concentration in the dilution series that meets the test's criterion for growth inhibition. Consider `CCCC(CCC)Oc1ccc(-c2nc(C)c(C(=O)N[C@@H](CCN)C(=O)N(C)[C@@H]3C(=O)N[C@@H](C)C(=O)N[C@H](C(=O)NCC#N)Cc4ccc(OCCN)c(c4)-c4cc3ccc4OCCN)c(C)n2)cc1` (racemic) [Compound 341, rac-(8S,11S,14S)-3,18-bis(2-aminoethoxy)-N-(cyanomethyl)-11-methyl-14-[methyl-[rac-(2S)-4-amino-2-[[4,6-dimethyl-2-[4-(1-propylbutoxy)phenyl]pyrimidine-5-carbonyl]amino]butanoyl]amino]-10,13-dioxo-9,12-diazatricyclo[13.3.1.12,6]icosa-1(18),2(20),3,5,15(19),16-hexaene-8-carboxamide], for which the MIC is 0.016 µM in test [1] and 0.13 µM in test [2].

In the case of `Cc1nc(-c2ccc(OC(C)(C)C)cc2)nc(C)c1C(=O)N[C@@H](CCN)C(=O)N(C)[C@@H]1C(=O)N[C@@H](C)C(=O)N[C@H](C(=O)NCC#N)Cc2ccc(OCCN)c(c2)-c2cc1ccc2OCCN` (racemic) [Compound 342, rac-(8S,11S,14S)-3,18-bis(2-aminoethoxy)-N-(cyanomethyl)-11-methyl-14-[methyl-[rac-(2S)-4-amino-2-[[2-(4-tert-butoxyphenyl)-4,6-dimethyl-pyrimidine-5-carbonyl]amino]butanoyl]amino]-10,13-dioxo-9,12-diazatricyclo[13.3.1.12,6]icosa-1(18),2(20),3,5,15(19),16-hexaene-8-carboxamide], the results for the MIC in test [1] and in test [2] were 0.097 µM and 0.39 µM, respectively.

`Cc1nc(-c2ccc(COC(C)(C)C)cc2)nc(C)c1C(=O)N[C@@H](CCN)C(=O)N(C)[C@@H]1C(=O)N[C@@H](C)C(=O)N[C@H](C(=O)NCC#N)Cc2ccc(OCCN)c(c2)-c2cc1ccc2OCCN` (racemic) [Compound 343, rac-(8S,11S,14S)-3,18-bis(2-aminoethoxy)-N-(cyanomethyl)-11-methyl-14-[methyl-[rac-(2S)-4-amino-2-[[2-[4-(tert-butoxymethyl)phenyl]-4,6-dimethyl-pyrimidine-5-carbonyl]amino]butanoyl]amino]-10,13-dioxo-9,12-diazatricyclo[13.3.1.12,6]icosa-1(18),2(20),3,5,15(19),16-hexaene-8-carboxamide]: the MIC in test [1] was found to be 0.13 µM; in test [2] it was 0.75 µM.

For `CCCC1(Oc2ccc(-c3nc(C)c(C(=O)N[C@@H](CCN)C(=O)N(C)[C@@H]4C(=O)N[C@@H](C)C(=O)N[C@H](C(=O)NCC#N)Cc5ccc(OCCN)c(c5)-c5cc4ccc5OCCN)c(C)n3)cc2)CC1` (racemic) [Compound 346, rac-(8S,11S,14S)-3,18-bis(2-aminoethoxy)-N-(cyanomethyl)-11-methyl-14-[methyl-[rac-(2S)-4-amino-2-[[4,6-dimethyl-2-[4-(1-propylcyclopropoxy)phenyl]pyrimidine-5-carbonyl]amino]butanoyl]amino]-10,13-dioxo-9,12-diazatricyclo[13.3.1.12,6]icosa-1(18),2(20),3,5,15(19),16-hexaene-8-carboxamide], the MIC in test [1] worked out at 0.016 µM; in test [2], 0.13 µM.

On to `CCCCC1(Oc2ccc(-c3nc(C)c(C(=O)N[C@@H](CCN)C(=O)N(C)[C@@H]4C(=O)N[C@@H](C)C(=O)N[C@H](C(=O)NCC#N)Cc5ccc(OCCN)c(c5)-c5cc4ccc5OCCN)c(C)n3)cc2)CC1` (racemic) [Compound 347, rac-(8S,11S,14S)-3,18-bis(2-aminoethoxy)-N-(cyanomethyl)-11-methyl-14-[methyl-[rac-(2S)-4-amino-2-[[2-[4-(1-butylcyclopropoxy)phenyl]-4,6-dimethyl-pyrimidine-5-carbonyl]amino]butanoyl]amino]-10,13-dioxo-9,12-diazatricyclo[13.3.1.12,6]icosa-1(18),2(20),3,5,15(19),16-hexaene-8-carboxamide], for which the results for the minimal inhibitory concentration (MIC) in test [1] and in test [2] were 0.047 µM and 0.25 µM, respectively.

Turning to `Cc1nc(-c2ccc(OC3CCC(C)(C)CC3)cc2)nc(C)c1C(=O)N[C@@H](CCN)C(=O)N(C)[C@@H]1C(=O)N[C@@H](C)C(=O)N[C@H](C(=O)NCC#N)Cc2ccc(OCCN)c(c2)-c2cc1ccc2OCCN` (racemic) [Compound 348, rac-(8S,11S,14S)-3,18-bis(2-aminoethoxy)-N-(cyanomethyl)-11-methyl-14-[methyl-[rac-(2S)-4-amino-2-[[2-[4-(4,4-dimethylcyclohexoxy)phenyl]-4,6-dimethyl-pyrimidine-5-carbonyl]amino]butanoyl]amino]-10,13-dioxo-9,12-diazatricyclo[13.3.1.12,6]icosa-1(18),2(20),3,5,15(19),16-hexaene-8-carboxamide], the MIC in test [1] came to 0.023 µM; in test [2], 0.19 µM.

In the case of `Cc1nc(-c2ccc(OC3C[C@H]4CCCC[C@H]4C3)cc2)nc(C)c1C(=O)N[C@@H](CCN)C(=O)N(C)[C@@H]1C(=O)N[C@@H](C)C(=O)N[C@H](C(=O)NCC#N)Cc2ccc(OCCN)c(c2)-c2cc1ccc2OCCN` (mixture of isomers) [Compound 349, rac-(8S,11S,14S)-3,18-bis(2-aminoethoxy)-N-(cyanomethyl)-11-methyl-14-[methyl-[rac-(2S)-4-amino-2-[[4,6-dimethyl-2-[4-[[rac-(3aR,7aS)-2,3,3a,4,5,6,7,7a-octahydro-1H-inden-2-yl]oxy]phenyl]pyrimidine-5-carbonyl]amino]butanoyl]amino]-10,13-dioxo-9,12-diazatricyclo[13.3.1.12,6]icosa-1(18),2(20),3,5,15(19),16-hexaene-8-carboxamide], the minimum inhibitory concentration (MIC) was found to be 0.023 µM in test [1] and 0.094 µM in test [2].

On to `Cc1nc(-c2ccc(OC3C[C@@H]4CC[C@H]3C4)cc2)nc(C)c1C(=O)N[C@@H](CCN)C(=O)N(C)[C@@H]1C(=O)N[C@@H](C)C(=O)N[C@H](C(=O)NCC#N)Cc2ccc(OCCN)c(c2)-c2cc1ccc2OCCN` (mixture of isomers) [Compound 350, rac-(8S,11S,14S)-3,18-bis(2-aminoethoxy)-N-(cyanomethyl)-11-methyl-14-[methyl-[rac-(2S)-4-amino-2-[[4,6-dimethyl-2-[4-[rac-(1S,4R)-norboman-2-yl]oxyphenyl]pyrimidine-5-carbonyl]amino]butanoyl]amino]-10,13-dioxo-9,12-diazatricyclo[13.3.1.12,6]icosa-1(18),2(20),3,5,15(19),16-hexaene-8-carboxamide], for which the MIC in test [1] was determined as 0.016 µM; in test [2], 0.094 µM.

`CCCCc1ccc(Oc2nc(C)c(C(=O)N[C@@H](CCN)C(=O)N(C)[C@@H]3C(=O)N[C@@H](C)C(=O)N[C@H](C(=O)NCC#N)Cc4ccc(OCCN)c(c4)-c4cc3ccc4OCCN)c(C)n2)cc1` (racemic) [Compound 354, rac-(8S,11S,14S)-3,18-bis(2-aminoethoxy)-N-(cyanomethyl)-11-methyl-14-[methyl-[rac-(2S)-4-amino-2-[[2-(4-butylphenoxy)-4,6-dimethyl-pyrimidine-5-carbonyl]amino]butanoyl]amino]-10,13-dioxo-9,12-diazatricyclo[13.3.1.12,6]icosa-1(18),2(20),3,5,15(19),16-hexaene-8-carboxamide]: the figures for the MIC in test [1] and in test [2] were 0.016 µM and 1.5 µM, respectively.
